In patent US7943657B2, “Imidoalkanpercarboxylic acids” (Solvay Solexis S.p.A., priority 2002, dated 2011):

Legend:
[1] = Dissolution time of crystalline PAP dispersed in standard detergent solution (HPLC); format: physicochemical; settings: listed as crystals of PAP in beta form
Description: Successive samples of liquid phase, carefully filtered on filter of 0.45 micron, are drawn and the PAP concentration in solution is determined by HPLC.
Said times are determined by drawing some curves reporting in ordinate the PAP concentration dissolved in the aqueous phase (determined by HPLC) and in abscissae the sample drawing time, taking as 100% the PAP concentration asymptotically obtained at infinite time.
The previous test is repeated by dispersing 70 mg of anhydrous crystalline PAP (base 100%), respectively of crystals and microcrystals (sizes lower than 10 micron) of PAP in beta form, obtained as from Examples 2B and 2A respectively, in one liter of aqueous solution, prepared as above, stirred and thermostated at the temperature of 25° C.
Successive samples of liquid phase, carefully filtered on filter of 0.45 micron, are drawn, and the PAP concentration in solution is determined by HPLC.

[2] = Phase separation and sedimentation of 5% aqueous PAP dispersion at rest in graduated cylinder; format: physicochemical; settings: 5% by weight PAP dispersion, rest at room temperature
Description: In a beaker immersed in a thermostatic bath an aqueous dispersion of alpha crystalline PAP in demineralized water at 5% by weight of PAP is prepared, by adding to 473.5 ml of demineralized water at the temperature of 50° C., kept under stirring with an anchor and a magnetic stirrer, 500 ppm of antifoam DB 100 and 1,000 ppm of surfactant Hostapur® SAS and 26.50 g of crystalline PAP in alpha form, of technical degree (titre: 94.3%) having average sizes higher than 100 micron. After 10 minutes of stirring at 50° C., the beaker is removed from the thermostatic bath and the aqueous suspension is transferred in a graduated cylinder. It is let rest at room temperature in the graduated cylinder.
An aqueous dispersion of crystalline PAP in demineralized water at 5% by weight of PAP is prepared, as described in Example 2A, by adding to 471.9 ml of demineralized water 500 ppm of antifoam DB 100 and 1000 ppm of surfactant Hostapur® SAS and 28.1 g of crystalline PAP in beta form of technical degree (titre: 89%), having average sizes higher than 100 micron, in particular 80% of the particles being comprised between 100 and 200 micron. After 10 minutes of stirring at 50° C., the beaker is removed and the suspension is transferred into a graduated cylinder, as in Example 2A. […] The separation of the supernatant aqueous phase increases after 2 hours to more than 70% of the total volume.

- necessary time for the dissolution of 90% of the crystalline PAP initially dispersed ([1]; 70 mg PAP in 1 liter water 10° F. hardness + 1.70 g detergent IEC type B, 25° C.): 60 min
- necessary time for the dissolution of 90% of the crystalline PAP initially dispersed ([1]; 100 mg PAP in 1 liter water 10° F. hardness + 1.70 g detergent IEC type B, 40° C.): 30 min
- separation of supernatant aqueous phase ([2]; after 10 minutes): 60 % of the total volume
- separation of supernatant aqueous phase ([2]; after 2 hours): more than 70 % of the total volume
SMILES: O=C(CCCCCN1C(=O)c2ccccc2C1=O)OO [Example 2B, ε-phthalimido-peroxyhexanoic acid]
- solid phase thickening / sedimentation on the cylinder bottom ([2]; 2A after two hours and 48 hours, 2B after 10 minutes): sedimentation of a precipitate on the bottom
